Marks after values point to notes of the source that are not given here.
Columns and labels:
[1] = system: Taenia crassiceps; settings: mice, administration prior to infection with cysticerci; cited from earlier work
[2] = system: BALB/c male mice sensitized and challenged with OVA; experiment: Mouse asthma model (OVA challenge, bronchioalveolar lavage cell count); assay type: in vivo; settings: 0.2 mg/kg per day
Description: In this experiment, the BEA formulation is prepared based present invention formulation (Formulation of Composition 1 in Example 1).
18 BALB/c male mice, 8 weeks old are sensitized with two intraperitoneal (IP) administrations, 5 days apart, of 10 μg chicken egg ovalbumin (OVA, grade V; Sigma) emulsified in 1 mg of aluminum hydroxide (Thermo Scientific, Rockford, Ill., USA) in a total volume of 100 μl. Then, after one month mice are challenged via intratracheal (IT) administration of 0.75% OVA. BEA formulation is administered at 0.2 mg/kg dose in an injection volume of 0.1 mL in two different routes of administration (intratracheal and subcutaneous (SC)), one hour after the OVA challenge and one dose per day for up to 7 days. Then, animals are euthanized by exsanguination under pentobarbital anesthesia. The bronchioalveolar lavage (BAL) of the mice are used to determine the total counts of inflammatory cells. Control mice receive saline solution intraperitoneally (IP). All experiments are performed in accordance with INCMN Mexico City regulations. Two independent experiments are performed.

[3] = system: Entamoeba histolytica; settings: hamsters; cited from earlier work
[4] = system: Vk*MYC Mice; experiment: Anti-myeloma activity in Vk*MYC mice (M-Spike); settings: 15 mg/kg/day
Description: 3 Vk*MYC Mice are evaluated. […] The M-Spike value are assessed at day 7 and 14 respectively. […] The M-Spike value are assessed at day 7, 14 and 21 respectively.

[5] = system: ICR mice with colitis induced by DSS; experiment: DSS induced mouse colitis model; assay type: in vivo; settings: for White blood cell count: Mean ± SD, n = 12; for Macrohage cell count: abdominal macrophages
Description: Experimental animals: 72 ICR mice, male and female, 25-29 g body weight before starting the experiment.
Subgrouping: The experimental animals are divided into 6 groups at random, 12 mice in each group: physiological saline group, high dose group (40 mg/kg), moderate dose group (20 mg/kg), low dose group (10 mg/kg) of BEA obtained in Formulation/Composition 1 of the present invention, Dexamethasone (0.1 mg/kg), DSS model group.
Model replication: The experimental mice are […] 3% DSS and fed with water routinely for 7 days, the colitis model is duplicated.
Administration of drug: the mice are injected with the test drug on the same day when DSS are injected.
Experimental animal management: the general physical condition, loose stools, and bloody stools are observed every day.
The fecal occult blood is tested 3 days after injected with drug. The blood tests are done on day 7. The macrophages are counted and their IL-6 and TNF-alpha are determined. Their inflammation and ulcer level are observed. The colon content is taken to smear, stain and then determined the G+/G−. The thymus, spleen, liver are taken to weight and calculate the organ index. Sections of colon are sent for pathological examination.

C[C@]12CC[C@H](O)C[C@@H]1CC[C@@H]1[C@@H]2CC[C@]2(C)C(=O)[C@H](Br)C[C@@H]12 [BEA, 16alpha-bromo-3beta-hydroxy-5alpha-androstan-17-ketone]
reduction of parasite load compared with controls [1]: 50% | Inflammatory Cell Number in bronchioalveolar lavage ([2]; IT, Day 3): 4.61 × 10^4 | Inflammatory Cell Number in bronchioalveolar lavage ([2]; IT, Day 7): 5.99 × 10^4 | Inflammatory Cell Number in bronchioalveolar lavage ([2]; SC, Day 3): 4.07 × 10^4 | Inflammatory Cell Number in bronchioalveolar lavage ([2]; SC, Day 7): 1.06 × 10^5 | reduction on the development of amoebic liver abscesses [3]: 20% | reduction of M-Spike [4]: 40% | Final weight ([5]; BEA 10 mg/kg): 26.5 ± 2.6 g | IL-6/TNF-alpha ([5]; BEA 10 mg/kg): 9.5 ± 7.9 | IL-6 level ([5]; BEA 10 mg/kg): 551.7 ± 391.4 pg/mL | Spleen index ([5]; BEA 10 mg/kg): 5.7 ± 2.0 mg/g | TNFa level ([5]; BEA 10 mg/kg): 49.5 ± 23.2 pg/mL | The length of colon ([5]; BEA 10 mg/kg): 10.4 ± 1.0 cm | Thymus index ([5]; BEA 10 mg/kg): 2.7 ± 1.0 mg/g | Weight before fasting ([5]; BEA 10 mg/kg): 28.2 ± 2.8 g | number of animals with bloody stools ([5]; BEA 10 mg/kg): 5/12 | number of animals with fecal occult blood (3rd day) ([5]; BEA 10 mg/kg): 7/12 | White blood cell count ([5]; BEA 10 mg/kg): 5.9 ± 1.4 X10^9 | Macrohage cell count ([5]; BEA 10 mg/kg): 28.3 ± 8.9 X10^5 | Final weight ([5]; BEA 20 mg/kg): 25.7 ± 1.8 g | IL-6/TNF-alpha ([5]; BEA 20 mg/kg): 16.8 ± 8.0 | IL-6 level ([5]; BEA 20 mg/kg): 589.1 ± 227.1 pg/mL | Spleen index ([5]; BEA 20 mg/kg): 5.9 ± 1.0 mg/g | TNFa level ([5]; BEA 20 mg/kg): 49.1 ± 37.0 pg/mL | The length of colon ([5]; BEA 20 mg/kg): 10.5 ± 0.9 cm | Thymus index ([5]; BEA 20 mg/kg): 2.9 ± 0.7 mg/g | Weight before fasting ([5]; BEA 20 mg/kg): 27.7 ± 2.5 g | number of animals with bloody stools ([5]; BEA 20 mg/kg): 5/12 | number of animals with fecal occult blood (3rd day) ([5]; BEA 20 mg/kg): 7/12 | White blood cell count ([5]; BEA 20 mg/kg): 5.2 ± 1.5# X10^9 | Macrohage cell count ([5]; BEA 20 mg/kg): 32.3 ± 1.3# X10^5 | Final weight ([5]; BEA 40 mg/kg): 25.6 ± 1.7 g | IL-6/TNF-alpha ([5]; BEA 40 mg/kg): 12.7 ± 8.6 | IL-6 level ([5]; BEA 40 mg/kg): 370.8 ± 219.1 pg/mL | Spleen index ([5]; BEA 40 mg/kg): 6.4 ± 1.2 mg/g | TNFa level ([5]; BEA 40 mg/kg): 31.4 ± 15.1 pg/mL | The length of colon ([5]; BEA 40 mg/kg): 9.2 ± 0.8 cm | Thymus index ([5]; BEA 40 mg/kg): 3.1 ± 0.7 mg/g | Weight before fasting ([5]; BEA 40 mg/kg): 27.6 ± 1.7 g | number of animals with bloody stools ([5]; BEA 40 mg/kg): 6/12 | number of animals with fecal occult blood (3rd day) ([5]; BEA 40 mg/kg): 6/12 | White blood cell count ([5]; BEA 40 mg/kg): 5.9 ± 2.9 X10^9 | Macrohage cell count ([5]; BEA 40 mg/kg): 24.6 ± 3.4 X10^5

C[C@@H]1C[C@H]2[C@@H]3CCC4=CC(=O)C=C[C@]4(C)[C@@]3(F)[C@@H](O)C[C@]2(C)[C@@]1(O)C(=O)CO [Dex, Dexamethasone, reference compound]
IL-6/TNF-alpha ([5]; Dexamethasone 0.1 mg/kg): 15.8 ± 8.7 | IL-6 level ([5]; Dexamethasone 0.1 mg/kg): 791.7 ± 234.3 pg/mL | Spleen index ([5]; Dexamethasone 0.1 mg/kg): 7.9 ± 1.7 mg/g | TNFa level ([5]; Dexamethasone 0.1 mg/kg): 92.4 ± 42.1 pg/mL | The length of colon ([5]; Dexamethasone 0.1 mg/kg): 9.9 ± 1.2 cm | Thymus index ([5]; Dexamethasone 0.1 mg/kg): 0.9 ± 0.4 mg/g | number of animals with bloody stools ([5]; Dexamethasone 0.1 mg/kg): 8/12 | number of animals with fecal occult blood (3rd day) ([5]; Dexamethasone 0.1 mg/kg): 9/12 | White blood cell count ([5]; Dexamethasone 0.1 mg/kg): 5.0 ± 2.6# X10^9 | Macrohage cell count ([5]; Dexamethasone 0.1 mg/kg): 24.4 ± 5.7 X10^5

— patent US11685762B2, “Aqueous suspension compositions, formulations, and water dispersible dry compositions comprising 16alpha-bromo-3beta-hydroxy-5alpha-androstan-17-ketone and hydrates, derivatives, and analogs thereof” (SD Chem, Inc., priority 2019, dated 2023)
